Common to all, as to assay type: in vivo
One experiment has as its system Iba1. The experiment is described as follows: Western blot of Iba1 in spinal cord of CFA mice. The conditions noted are these: L4–L6 spinal cord, 30 mg/kg i.p. once a day for 3 days, versus vehicle group. The method, then: Given the critical role of microglial activation in inflammation-mediated responses, we investigated whether Compound 14e could modulate microglial activity in the spinal dorsal horn of mice following Complete Freund’s Adjuvant (CFA) injection. First, we assessed the expression of the microglial marker Iba1 in the L4–L6 segments of the spinal cord.
FIGURE 4 Compound 14e prevented the upregulation of Iba1 in CFA mice.
The mice were anesthetized with isoflurane, and 40 μL of CFA (Sigma-Aldrich) was intraplantarly injected into the mid-plantar surface of their left hind paws. As for the control group, an equivalent volume of normal saline was injected ([Jiang et al., 2018]).
The compound 14e were diluted with 10% DMSO, and were intraperitoneally injected with 30 mg/kg into the mice once a day for 3 days after CFA. The dosage of compound 14e was determined based on our preliminary experiments.
Animals were deeply anesthetized with 1% pentobarbital sodium (0.1 g/kg, i. p.) and the ipsilateral spinal cord in the lumbar enlargement site was rapidly separated and homogenized in ice-cold lysis buffer containing 50 mM Tris-HCl (pH 7.4), 150 mM NaCl, 1% NP-40, 0.1% SDS, 1 mM phenylmethylsulfonyl fluoride and protease phosphatase inhibitor (Solarbio Company, China). […] The protein concentrations were measured using a bicinchoninic acid (BCA) kit (Pierce Biotechnology Inc.). […]

Experiment [1] concerns CFA-induced inflammatory pain model. The experiment in a line: CFA-induced spontaneous pain, flinching and guarding behaviors. The conditions noted are these: CFA mice, 30 mg/kg i.p. repeated, 72 h post-CFA. The method, then:
To evaluate the analgesic effects of Compound 14e in vivo, we established an inflammatory pain model using intraplantar injection of CFA. Compound 14e (30 mg/kg) was administered intraperitoneally at 6 h, with subsequent doses at 48 and 72 h after CFA injection. Behavioral assessments, including von Frey testing for mechanical allodynia and heat stimuli for thermal hyperalgesia, were conducted on the injected hind paw at baseline (BL), as well as at 6, 12, 18, 24, 48 and 72 h post-CFA injection. Additionally, flinching and guarding behaviors, indicators of spontaneous pain, were evaluated 72 h after CFA injection. […] (A,B) Evaluation of CFA-induced mechanical allodynia as assessed by withdrawal frequency to 0.07 g (A) and 0.4 g (B) von Frey filaments in mice repetitive treated with 10% DMSO or compound 14e. (C) Assessment of CFA-induced thermal hyperalgesia in the latency in mice treated with 10% DMSO or compound 14e. […] The dosage of compound 14e was determined based on our preliminary experiments. Spontaneous nociceptive behavior was recorded in previous studies ([Liu et al., 2023]; [Yang et al., 2018]) Mice were placed in the Plexiglas chamber and allowed to habituate for 30 min. Following acclimatization, the number of flinches and the time spent on guarding behaviors were analyzed for 10 min. […]

Another experiment has as its system TNF-α. The experiment is described as follows: ELISA of TNF-α in inflamed paw, spinal cord and serum of CFA mice. Conditions: ipsilateral L4–L6 spinal cord and serum, 72 h after CFA. An excerpt: To determine whether the analgesic effects of Compound 14e are associated with reduced local and systemic inflammation, we measured the levels of inflammatory factors in the inflamed paw tissue, ipsilateral L4–L6 spinal cord, and peripheral blood. The results indicated a significant increase in the protein levels of TNF-α and IL-1β in the inflamed paw, spinal cord, and serum of mice in the CFA group compared to the vehicle group.
FIGURE 6 Compound 14e reduces TNF-α and IL-1β in the inflamed hindpaw skin, spinal cord and peripheral blood 72 h after CFA-induced inflammation. (A,D) Expression levels of TNF-α and IL-1β in the inflamed skin tissue. (B,E) Expression levels of TNF-α and IL-1β in ipsilateral L4–6 spinal cord. […]
Under anesthesia with 1% pentobarbital sodium, serum was obtained from the mice orbits, after coagulation at room temperature for 2 h, the sample was then centrifuged at 1,000 × g for 20 min at 4 °C, with the supernatant collected. […] The protein concentrations were determined using a bicinchoninic acid (BCA) kit (Pierce Biotechnology Inc.). The following inflammatory factors were measured using Mouse TNF-α ELISA kit (EM0183) and IL-1β ELISA kit (EM0109) obtained from Wuhan Fine Biotechnology Company, according to the product protocols. The O.D. absorbance at 450 nm was quantified in a ultramicroplate spectrophotometer (BioTek Epoch).

As to `O=C1COc2ccc(NC(=O)c3cccc(-c4cn(Cc5c(F)cccc5Cl)nn4)c3)cc2N1` [Compound 14e], the “Iba1 protein level (Western blot)” value with Iba1 is recorded as “significantly reduced”. Further, the “spontaneous pain behaviors (flinching and guarding)” value in experiment [1] is reported as “significantly reduced”. The “CFA-induced levels of TNF-α” value in the experiment with TNF-α was “significantly decreased”.

(Values after article PMC12491243, “Rational design of indoleamine 2,3-dioxygenase 1 (IDO1) inhibitors featuring 1,2,3-triazole derivatives with enhanced anti-inflammatory and analgesic efficacy” (Frontiers in Pharmacology, 2025).)
